Biological target: T1, human Y4 receptor (Homo sapiens, UniProt P50391)
T1 construct: expressed in transfected cells
Test: NPY4 cAMP HTRF Agonist Assay (inhibitory cAMP assay, Gi activation by Y4 agonism)
Format: cell-based
Conditions: TABLE 2, R2 is Phenyl-CN; read-out: hY4 CAMP EC50
Method in brief: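 CHO cells stably expressing human Y4, 5000/well, exposed to compound with forskolin and IBMX in PBS for 30 min at room temperature. Gi-mediated inhibition of cAMP then measured by HTRF after 1 h with d2-conjugate and anti-cAMP cryptate.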

T1 sequence (P50391 whole entry): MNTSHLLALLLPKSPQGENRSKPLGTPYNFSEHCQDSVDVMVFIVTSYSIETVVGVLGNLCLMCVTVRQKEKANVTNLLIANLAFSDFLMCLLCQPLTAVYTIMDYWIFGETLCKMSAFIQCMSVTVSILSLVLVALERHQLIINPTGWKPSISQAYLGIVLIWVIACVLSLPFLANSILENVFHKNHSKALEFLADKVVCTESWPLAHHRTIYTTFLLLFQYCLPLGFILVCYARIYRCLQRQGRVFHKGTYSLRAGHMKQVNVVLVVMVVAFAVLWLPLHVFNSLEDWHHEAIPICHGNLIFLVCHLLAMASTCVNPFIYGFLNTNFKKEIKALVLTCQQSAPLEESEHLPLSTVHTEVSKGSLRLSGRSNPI

Row | EC50 [nM] | Compound
1 | 7 | CC(=O)NCc1cccc(-c2ccnc(N[C@@H]3CCCC[C@H]3N[C@H]3CCCN(c4ccc(C#N)cc4)C3)c2)c1 [Example 244]
2 | 440 | N#Cc1ccc(N2CCC[C@H](N[C@@H]3CCCC[C@H]3Nc3cc(-n4ccc(C(F)(F)F)n4)ccn3)C2)cc1 [Example 206]
3 | 8 | N#Cc1ccc(N2C[C@@H]3C[C@H](N[C@@H]4CCCC[C@H]4Nc4cc(-c5cccc(C(N)=O)c5)ccn4)[C@H]2C3)cc1 [Example 231]
4 | 8 | C[C@H](O)c1cccc(-c2ccnc(N[C@@H]3CCCC[C@H]3N[C@H]3CCCN(c4ccc(C#N)cc4)C3)c2)c1 [Example 268]
5 | 43 | N#Cc1ccc(N2CCC[C@H](N[C@@H]3CCCC[C@H]3Nc3cc(-n4cccc4)ccn3)C2)cc1 [Example 280]
6 | 542 | N#Cc1ccc(N2CCC[C@H](N[C@@H]3CCCC[C@H]3Nc3cc(-c4ccc(C#N)s4)ccn3)C2)cc1 [Example 273]
7 | 5 | N#Cc1ccc(N2CCC[C@H](N[C@@H]3CCCC[C@H]3Nc3ncc(-c4ccccc4OC(F)(F)F)o3)C2)cc1 [Example 226]

Same assay, conditions: TABLE 3, R2 is Phenyl-NO2; read-out: hY4 CAMP EC50

Row | EC50 [nM] | Compound
8 | 41 | NC(=O)c1cccc(-c2ccnc(N[C@@H]3CCCC[C@H]3N[C@H]3C[C@@H]4C[C@H]3N(c3ccc([N+](=O)[O-])cc3)C4)c2)c1 [Example 294]

Same assay, conditions: TABLE 4, R2 is Pyridinyl-CN; read-out: hY4 CAMP EC50

Row | EC50 [nM] | Compound
9 | 68 | CC(O)c1cccc(-c2ccnc(N[C@@H]3CCCC[C@H]3NC3CCCN(c4ccc(C#N)nc4)C3)c2)c1 (stereo partly shown) [Example 313]
10 | 67 | CC(C)(O)c1cccc(-c2ccnc(N[C@@H]3CCCC[C@H]3NC3CCCN(c4ccc(C#N)nc4)C3)c2)c1 (stereo partly shown) [Example 314]

Same assay, conditions: TABLE 5, R2 is Pyridinyl-CF3; read-out: hY4 CAMP EC50

Row | EC50 [nM] | Compound
11 | 567 | NC(=O)c1cccc(-c2cnc(N[C@@H]3CCCC[C@H]3N[C@H]3C[C@@H]4C[C@H]3N(c3ccnc(C(F)(F)F)c3)C4)o2)c1 [Example 325]

Same assay, conditions: TABLE 7, R2 is Pyridinyl-oxadiazole-CH3; read-out: hY4 CAMP EC50

Row | EC50 [nM] | Compound
12 | 13 | Cc1nc(-c2ccc(N3CCC[C@](C)(N[C@@H]4CCCC[C@H]4Nc4ncc(-c5cccc(C(N)=O)c5)o4)C3)cn2)no1 [Example 389]
13 | 427 | Cc1nc(-c2ccc(N3CCC[C@H](N[C@@H]4CCCC[C@H]4Nc4ncc(-c5ccc(OC(F)(F)F)cc5)o4)C3)cn2)no1 [Example 394]
14 | 14 | COC(=O)c1cccc(-c2cnc(N[C@@H]3CCCC[C@H]3N[C@H]3CCCN(c4ccc(-c5noc(C)n5)nc4)C3)o2)c1 [Example 383]
15 | 243 | Cc1nc(-c2ccc(N3CCC[C@H](N[C@@H]4CCCC[C@H]4Nc4ncc(-c5cccc(C(=O)NCC(C)C)c5)o4)C3)cn2)no1 [Example 386]

Same assay, conditions: human Y4 receptor, cAMP; read-out: hY4 CAMP EC50

Row | EC50 [nM] | Compound
16 | 49 | O=C1OCCN1c1cccc(-c2cnc(N[C@@H]3CCCC[C@H]3N[C@H]3CCCN(c4cnc(C(F)(F)F)nc4)C3)o2)c1 [Example 416]
17 | 650 | NC(=O)c1cccc(-c2ccnc(N[C@@H]3CCCC[C@H]3N[C@H]3CCCN(c4ccc(-n5cncn5)cc4)C3)c2)c1 [Example 512]
18 | 318 | Cc1nnc(-c2ccc(N3CCC[C@H](N[C@@H]4CCCC[C@H]4Nc4cc(Br)ccn4)C3)cc2)o1 [Example 352]
19 | 4 | Cn1nnc(-c2ccc(N3C[C@@H]4C[C@H](N[C@@H]5CCCC[C@H]5Nc5cc(-c6cccc(C(N)=O)c6)ccn5)[C@H]3C4)cc2)n1 [Example 460]
20 | 954 | FC(F)(F)Oc1cccc(-c2cnc(N[C@@H]3CCCC[C@H]3N[C@H]3CCCN(c4cnc(C(F)(F)F)nc4)C3)o2)c1 [Example 404]
21 | 42 | Cc1nc2ccc(N3CCC[C@H](N[C@@H]4CCCC[C@H]4Nc4ncc(-c5cccc(C(=O)NC6CC6)c5)o4)C3)cn2n1 [Example 494]
22 | 21 | Cn1nnnc1-c1ccc(N2CCC[C@H](N[C@@H]3CCCC[C@H]3Nc3cc(-c4cccc(C(N)=O)c4)ccn3)C2)cc1 [Example 508]
23 | 264 | Fc1ccc(-c2cnc(N[C@@H]3CCCC[C@H]3N[C@H]3CCCN(c4cnc(C(F)(F)F)nc4)C3)o2)c(F)c1 [Example 403]
24 | 8 | NC(=O)c1cccc(-c2ccnc(N[C@@H]3CCCC[C@H]3N[C@H]3CCCN(c4ccc(OC(F)(F)F)cc4)C3)c2)c1 [Example 462]
25 | 5 | Cc1nnc(-c2ccc(N3CCCC(N[C@@H]4CCCC[C@H]4Nc4cc(-c5ccncc5)ccn4)C3)cc2)o1 (stereo partly shown) [Example 369]
26 | 15 | Cc1noc(-c2ccc(N3CCC[C@H](N[C@@H]4CCCC[C@H]4Nc4nccc(-c5ccccc5)n4)C3)cc2)n1 [Example 354]
27 | 6 | COC(=O)Nc1cccc(-c2ccnc(N[C@@H]3CCCC[C@H]3N[C@H]3CCCN(c4cnc(C(F)(F)F)nc4)C3)c2)c1 [Example 413]
28 | 1 | Cc1nc(-c2ccc(N3C[C@@H]4C[C@H](N[C@@H]5CCCC[C@H]5Nc5cc(-c6cccc(C(N)=O)c6)ccn5)[C@H]3C4)cc2)no1 [Example 353]
29 | 22 | NC(=O)c1cccc(-c2ccnc(N[C@@H]3CCCC[C@H]3N[C@H]3CCCN(c4ncc(C(F)(F)F)cn4)C3)c2)c1 [Example 399]
30 | 16 | O=C(Nc1cccc(-c2cnc(N[C@@H]3CCCC[C@H]3N[C@H]3CCCN(c4ccc5ncnn5c4)C3)o2)c1)C1CC1 [Example 487]

Same assay, conditions: human Y4 stable CHO clonal cells, forskolin + IBMX; read-out: NPY4 cAMP HTRF Agonist Assay EC50

Row | EC50 [nM] | Compound
31 | 3 | O=[N+]([O-])c1ccc(N2CCC[C@H](N[C@@H]3CCCC[C@H]3Nc3ncc(-c4ccc(OC(F)F)cc4)o3)C2)cc1 [Example 13, (1R,2R)—N1-(5-(4-(Difluoromethoxy)phenyl)oxazol-2-yl)-N2-((S)-1-(4-nitrophenyl)piperidin-3-yl)cyclohexane-1,2-diamine]
32 | 389 | O=[N+]([O-])c1ccc(N2CCC[C@H](N[C@@H]3CCCC[C@H]3Nc3nccc(-c4cccc(OC(F)(F)F)c4)n3)C2)cc1 [Example 29, (1R,2R)—N1-((S)-1-(4-Nitrophenyl)piperidin-3-yl)-N2-(4-(3-(trifluoromethoxy)phenyl)pyrimidin-2-yl)cyclohexane-1,2-diamine]
33 | 6 | O=[N+]([O-])c1ccc(N2CCC[C@H](N[C@@H]3CCCC[C@H]3Nc3ncc(-c4ccc(OC(F)(F)F)cc4)o3)C2)cc1 [Example 1, (1R,2R)—N1-((S)-1-(4-Nitrophenyl)piperidin-3-yl)-N2-(5-(4-(trifluoromethoxy)phenyl)oxazol-2-yl)cyclohexane-1,2-diamine]
34 | 469 | Ic1ccc(N2CCC[C@H](N[C@@H]3CCCC[C@H]3Nc3nccc(-c4ccccc4)n3)C2)cc1 [Example 92, (1R,2R)—N1-((S)-1-(4-Iodophenyl)piperidin-3-yl)-N2-(4-phenylpyrimidin-2-yl)cyclohexane-1,2-diamine bis-trifluoroacetate]
35 | 3 | COC(=O)Nc1cccc(-c2cnc(N[C@@H]3CCCC[C@H]3N[C@H]3CCCN(c4ccc(C(F)(F)F)cc4)C3)o2)c1 [Example 100, Methyl (3-(2-((1R,2R)-2(S)-1-(4-trifluoromethyl)phenylpiperidin-3-ylamino)cyclohexylamino)oxazol-5-yl)phenylcarbamate]
36 | 241 | COc1ccc(-c2ccnc(N[C@@H]3CCCC[C@H]3N[C@H]3CCCN(c4ccc([N+](=O)[O-])cc4)C3)n2)cc1 [Example 31, (1R,2R)—N1-(4-(4-Methoxyphenyl)pyrimidin-2-yl)-N2-((S)-1-(4-nitrophenyl)piperidin-3-yl)cyclohexane-1,2-diamine]
37 | 231 | N#Cc1ccc(N2CCC[C@H](N[C@@H]3CCCC[C@H]3Nc3cc(Br)ccn3)C2)cc1 [Example 50, 4-((S)-3-((1R,2R)-2-(4-Bromopyridin-2-ylamino)cyclohexylamino)piperidin-1-yl)benzonitrile]
38 | 704 | FC(F)(F)Oc1ccc(N2CCC[C@H](N[C@@H]3CCCC[C@H]3Nc3nccc(-c4ccccc4)n3)C2)cc1 [Example 88, (1R,2R)—N1-(4-Phenylpyrimidin-2-yl)-N2-((S)-1-(4-(trifluoromethoxy)phenyl)piperidin-3-yl)cyclohexane-1,2-diamine]
39 | 4 | O=[N+]([O-])c1ccc(N2CCC[C@H](N[C@@H]3CCCC[C@H]3Nc3ncc(-c4ccccc4F)o3)C2)cc1 [Example 9, (1R,2R)—N1-(5-(2-Fluorophenyl)oxazol-2-yl)-N2-((S)-1-(4-nitrophenyl)piperidin-3-yl)cyclohexane-1,2-diamine]
40 | 23 | O=[N+]([O-])c1ccc(N2CCC[C@H](N[C@@H]3CCCC[C@H]3Nc3ncc(-c4cccc(F)c4)o3)C2)cc1 [Example 19, (1R,2R)—N1-(5-(3-Fluorophenyl)oxazol-2-yl)-N2-((S)-1-(4-nitrophenyl)piperidin-3-yl)cyclohexane-1,2-diamine]

Row | Compound | EC50 [nM]
41 | CC(C)(C)Oc1ccc(-c2cnc(N[C@@H]3CCCC[C@H]3N[C@H]3CCCN(c4ccc([N+](=O)[O-])cc4)C3)o2)cc1 [Example 14, (1R,2R)—N1-(5-(4-tert-Butoxyphenyl)oxazol-2-yl)-N2-((S)-1-(4-nitrophenyl)piperidin-3-yl)cyclohexane-1,2-diamine] | 920

Same assay, conditions: second TABLE 1, R2 is Phenyl-CF3; read-out: hY4 CAMP EC50

Row | EC50 [nM] | Compound
42 | 886 | O=C(O)c1cccc(-c2cnc(N[C@@H]3CCCC[C@H]3N[C@H]3CCCN(c4ccc(C(F)(F)F)cc4)C3)o2)c1 [Example 116]
43 | 38 | CC(C)(C)NC(=O)c1cccc(-c2cnc(N[C@@H]3CCCC[C@H]3N[C@H]3CCCN(c4ccc(C(F)(F)F)cc4)C3)o2)c1 [Example 118]
44 | 79 | NCc1cccc(-c2ccnc(N[C@@H]3CCCC[C@H]3N[C@H]3CCCN(c4ccc(C(F)(F)F)cc4)C3)c2)c1 [Example 127]
45 | 4 | NC(=O)c1cccc(-c2ccnc(N[C@@H]3CCCC[C@H]3N[C@H]3CCCN(c4ccc(C(F)(F)F)cc4)C3)c2)c1 [Example 119]
46 | 2 | CCNC(=O)c1cccc(-c2cnc(N[C@@H]3CCCC[C@H]3N[C@H]3CCCN(c4ccc(C(F)(F)F)cc4)C3)o2)c1 [Example 124]
